The results in this text go back to paper PMC9863562, “Design, Synthesis, and Biological Evaluation of 2-Mercaptobenzoxazole Derivatives as Potential Multi-Kinase Inhibitors” (Pharmaceuticals, 2023).

The structures appear in SMILES notation.

Data set [1] deals with HeLa cells (epithelioid cervix carcinoma). The experiment in a line: MTT cytotoxicity assay, HeLa. Type of data set: cell-based. Particulars: Homo sapiens, 24 h treatment, read-out: In Vitro Cytotoxicity IC50 Hela. Here is the method:
(§1) After incubation, the cells were treated with various concentrations of the synthesized compounds and incubated for an additional 24 h. Following the drug treatment, 20 µL of 5 mg/mL MTT solution was added and incubated for 4 h. To dissolve the purple formazan that had formed, 100 µL dimethyl sulfoxide (DMSO) was added to each well. […] The percentage of relative cell viability was counted using the following formula (A570 of handled specimens/A570 of the unhandled specimen), multiplied by 100.
On the technique in general: Formazan colour is commonly taken as a measure of viable cells.

Data set [2] deals with MDA-MB-231 cells (breast cancer). Nature of the data set: MTT cytotoxicity assay, MDA-MB-231. Type of data set: cell-based. Particulars: Homo sapiens, 24 h treatment, read-out: In Vitro Cytotoxicity IC50 MDA-MB-231. Here is the method:
as §1

Data set [3] concerns HepG2 cells (hepatocellular carcinoma). The experiment in a line: MTT cytotoxicity assay, HepG2. Type of data set: cell-based. Conditions: Homo sapiens, HepG2, 24 h, 24 h treatment, read-out: In Vitro Cytotoxicity IC50 HepG2. From the text: (§2) The in vitro cytotoxicity for the final target compounds, 4(a–d), 5(a–f), and 6(a–b), was preliminarily evaluated via the MTT colorimetric assay against a panel of four human cell lines, namely, the hepatocellular carcinoma (HepG2), mammary gland (MCF-7), breast cancer (MDA-MB-231) and epithelioid cervix carcinoma (HeLa).
(§3) The cytotoxicity of the target hybrids was examined by an MTT assay against HepG2, HeLa, MCF-7, and MDA-MB-231. At first, the RPMI-1640 medium with 10% fetal bovine serum was used to cultivate the cell lines. Then, antibiotics (penicillin (100 units/mL) and streptomycin (100 µg/mL)) were added in a 37 °C incubator in 5% CO2. The cell lines were seeded in a 96-well plate at a density of 1.0 × 10^4 cells/well at 37 °C under 5% CO2 for 48 h. After incubation, the cells were treated with various concentrations of the synthesized compounds and incubated for an additional 24 h. Following the drug treatment, 20 µL of 5 mg/mL MTT solution was added and incubated for 4 h. To dissolve the purple formazan that had formed, 100 µL dimethyl sulfoxide (DMSO) was added to each well. At a wavelength of 570 nm, the colorimetric assay was recorded and measured, using a plate reader BioTek EXL 800 (Agilent Technologies, Inc., Santa Clara, CA, USA). The percentage of relative cell viability was counted using the following formula (A570 of handled specimens/A570 of the unhandled specimen), multiplied by 100. The results of the cytotoxicity value were presented as the median growth inhibitory concentration (IC50) of the reagents compared to the control.

For data set [4], the system named is MCF-7 cells (mammary gland cancer). Nature of the data set: MTT cytotoxicity assay, MCF-7. Type of data set: cell-based. Particulars: Homo sapiens, MCF7, 24 h treatment, read-out: In Vitro Cytotoxicity IC50 MCF-7. Here is the method: as §1
Data set [5] concerns HepG2, MCF-7, MDA-MB-231 and HeLa cell lines. The experiment in a line: MTT cytotoxicity assay, panel of four cell lines. Particulars: Homo sapiens, range over HepG2, MCF-7, MDA-MB-231, HeLa, read-out: IC50 values, range over the tested cell lines. Type of data set: cell-based.
From the text: as §2, §3

A word on the IC50: it is the concentration that inhibits the measured activity by half. The term melting point denotes the temperature of the solid-liquid transition. Consider `O=C(CSc1nc2ccccc2o1)NN=C1C(=O)Nc2ccc(Cl)cc21` [Compound 5e, (E/Z)-2-(benzo[d]oxazol-2-ylthio)-N′-(5-chloro-2-oxoindolin-3-ylidene)acetohydrazide], for which the melting point was 264 to 267 °C. Further, in data set [1], the IC50 came to 58.4 ± 3.2 µM. Besides, in data set [2], the half-inhibitory concentration (IC50) turned out to be 51.5 ± 2.8 µM. Also, the IC50 in data set [3] is 45.2 ± 2.7 µM. Further, the IC50 in data set [4] amounted to 53 ± 3.1 µM.

In the case of `Cc1ccc2c(c1)C(=NNC(=O)CSc1nc3ccccc3o1)C(=O)N2` [Compound 5b, (E/Z)-2-(benzo[d]oxazol-2-ylthio)-N′-(5-methyl-2-oxoindolin-3-ylidene)acetohydrazide], the melting point lay within 230 to 233 °C. Moreover, the IC50 in data set [1] is 31.5 ± 2.3 µM. The IC50 in data set [2] turned out to be 36.2 ± 2.4 µM. Also, the IC50 in data set [3] was 41.7 ± 2.4 µM. Further, the IC50 in data set [4] is 27.4 ± 2 µM.

With `O=C(CSc1nc2ccccc2o1)NN=Cc1ccc(Cl)c(Cl)c1` (mixture of isomers) [Compound 4a, (E/Z)-N′-(3,4-dichlorobenzylidene)-2-(benzo[d]oxazol-2-ylthio)acetohydrazide], the melting point lay within 193 to 195 °C. For the same molecule, in data set [1], the IC50 was 67.6 ± 3.4 µM. In addition, in data set [2], the IC50 is 75.5 ± 3.6 µM. Further, the IC50 in data set [3] is 81.2 ± 3.7 µM. For the same molecule, the IC50 in data set [4] is 74.2 ± 3.5 µM.

`O=C(CSc1nc2ccccc2o1)NN=Cc1ccc(OC(F)(F)F)cc1` (mixture of isomers) [Compound 4b, (E/Z)-N′-(4-(trifluoromethoxy)benzylidene)-2-(benzo[d]oxazol-2-ylthio)acetohydrazide] showed a melting point of 154 to 156 °C. The concentration for half-maximal inhibition (IC50) in data set [1] came out at 19.3 ± 1.6 µM. In addition, the concentration for half-maximal inhibition (IC50) in data set [2] stood at 9.72 ± 0.7 µM. Also, the 50% inhibitory concentration (IC50) in data set [3] stood at 13.1 ± 1.1 µM. The IC50 in data set [4] worked out at 15.2 ± 1.2 µM.

For `N#Cc1ccc(C=NNC(=O)CSc2nc3ccccc3o2)cc1` (mixture of isomers) [Compound 4c, (E/Z)-N′-(4-cyanobenzylidene)-2-(benzo[d]oxazol-2-ylthio)acetohydrazide], the melting point lay in the range of 246 to 248 °C. The half-maximal inhibitory concentration (IC50) in data set [1] came to 35.2 ± 2.5 µM. The IC50 in data set [2] came out at 21.1 ± 1.6 µM. In data set [3], the IC50 stood at 34.5 ± 2.2 µM. The IC50 in data set [4] worked out at 38.6 ± 2.5 µM.

`O=C(CSc1nc2ccccc2o1)NN=C1C(=O)Nc2ccc([N+](=O)[O-])cc21` [Compound 5c, (E/Z)-2-(benzo[d]oxazol-2-ylthio)-N′-(5-nitro-2-oxoindolin-3-ylidene)acetohydrazide] yielded a melting point of 165 to 167 °C. Moreover, the IC50 in data set [1] was determined as 50.6 ± 2.9 µM. Besides, in data set [2], the IC50 came to 62.4 ± 3.1 µM. Also, the 50% inhibitory concentration (IC50) in data set [3] was 56.2 ± 2.9 µM. In addition, in data set [4], the concentration for half-maximal inhibition (IC50) is 48.3 ± 2.8 µM.

Molecule `COc1cc(C=NNC(=O)CSc2nc3ccccc3o2)ccc1O` (mixture of isomers) [Compound 4d, (E/Z)-N′-(4-hydroxy-3-methoxybenzylidene)-2-(benzo[d]oxazol-2-ylthio)acetohydrazide] gave a melting point of 150 to 153 °C. Besides, in data set [1], the half-inhibitory concentration (IC50) was 12.9 ± 0.9 µM. Moreover, the IC50 in data set [2] came out at 4.93 ± 0.2 µM. The IC50 in data set [5] is 2.14 to 12.9 µM. In addition, in data set [3], the IC50 stood at 9.37 ± 0.7 µM. In addition, in data set [4], the IC50 came to 11.1 ± 0.9 µM.

`O=C(CSc1nc2ccccc2o1)NN=Cc1cccs1` (mixture of isomers) [Compound 6a, (E/Z)-2-(benzo[d]oxazol-2-ylthio)-N′-((thiophen-2-yl)methylene)acetohydrazide] showed a melting point of 218 to 221 °C. The half-maximal inhibitory concentration (IC50) in data set [1] came to 46.4 ± 2.7 µM. In addition, the 50% inhibitory concentration (IC50) in data set [2] came out at 30.8 ± 2.2 µM. In data set [3], the IC50 amounted to 26.4 ± 1.8 µM. In addition, the IC50 in data set [4] turned out to be 42.9 ± 2.8 µM.

On to `O=C(CSc1nc2ccccc2o1)NN=C1C(=O)Nc2ccccc21` [Compound 5a, (E/Z)-2-(benzo[d]oxazol-2-ylthio)-N′-(2-oxoindolin-3-ylidene)acetohydrazide], for which the melting point lay within 223 to 225 °C. In data set [1], the IC50 is 28.9 ± 2 µM. The half-inhibitory concentration (IC50) in data set [2] amounted to 14.6 ± 1.2 µM. In addition, the IC50 in data set [3] came out at 18 ± 1.3 µM. In addition, in data set [4], the IC50 turned out to be 23.5 ± 1.8 µM.

Molecule `O=C(CSc1nc2ccccc2o1)NN=C1C(=O)Nc2ccc(F)cc21` [Compound 5f, (E/Z)-2-(benzo[d]oxazol-2-ylthio)-N′-(5-fluoro-2-oxoindolin-3-ylidene)acetohydrazide] showed a melting point of 225 to 227 °C. The IC50 in data set [1] was 59.2 ± 3.1 µM. For the same molecule, in data set [2], the IC50 turned out to be 68.1 ± 3.5 µM. Also, the IC50 in data set [3] is 63.7 ± 3.2 µM. Further, the 50% inhibitory concentration (IC50) in data set [4] worked out at 70.3 ± 3.3 µM.

For `COc1ccc2c(c1)C(=NNC(=O)CSc1nc3ccccc3o1)C(=O)N2` [Compound 5d, (E/Z)-2-(benzo[d]oxazol-2-ylthio)-N′-(5-methoxy-2-oxoindolin-3-ylidene)acetohydrazide], the melting point lay in the range of 145 to 147 °C. Also, the IC50 in data set [1] is 6.27 ± 0.7 µM. In data set [2], the half-maximal inhibitory concentration (IC50) stood at 8.44 ± 0.6 µM. In data set [5], the IC50 is 2.14 to 12.9 µM. Also, in data set [3], the concentration for half-maximal inhibition (IC50) was found to be 10.5 ± 0.9 µM. For the same molecule, the IC50 in data set [4] worked out at 7.58 ± 0.6 µM.
